This note sets out measurements from patent EP0594651B1, “DRIED BLOOD CELLS AND METHOD OF PREPARATION” (QUADRANT HOLDINGS CAMBRIDGE LIMITED, priority 1991, dated 1993).

For test [1], the system named is erythrocytes. The experiment in a line: Erythrocytes incubated in an organic osmolyte, freeze-dried, rehydrated in PBS with 40% glucopyranosyl sorbitol; intact erythrocytes counted microscopically (Example 1). Type of test: cell-based. As to conditions: for % Intact Cells: incubated 2 hours at 37°C, freeze-dried; for freeze drying of erythrocytes: result in words. How it is done:
Whole blood was collected by venepuncture into the anticoagulant EDTA (used at a final concentration of 5mM), and then incubated for 2 hours at 37°C in one of the following osmolytes: proline, carnitine and betaine, over a range of concentrations. The samples were then frozen into a thin shell on the walls of the vessel and then placed under vacuum for drying. The vacuum was typically less than 25 µm Hg ([…]), and the samples were held under this vacuum for approxiamtely 16 hours.
The freeze-dried samples were rehydrated by resuspending some of the dry material in an hypertonic solution consisting of phosphate buffered saline (PBS) containing glucopyranosyl sorbitol at a concentration of 40%. The samples were then assesed microscopically to determine the number of intact erythrocytes.

The test system of test [2] is erythrocytes. In words: Freeze-dried blood rehydrated with solution A and PBS; intact cells assessed by fluorescein dye exclusion (Example 4). The test is classed as cell-based. How it is done:
The solutions were incubated at 37°C for 2 hours and then frozen onto the walls of a […] in a thin shell by first immersing the flask while rotating it, in a mixture of solid carbon dioxide and methylated spirits. […] The blood was dried under this vacuum for at least 16 hours. […] The dry blood was rehydrated with 1 volume of solution A (see Example 2), and when all the dry blood was resuspended, an equivalent volume PBS was added.

Test [3] relates to erythrocytes. The experiment in a line: Freeze-dried erythrocytes rehydrated with solution A, then PBS; integrity assessed microscopically (Example 2). The test is classed as cell-based. As to conditions: then equivalent amount of PBS. The method, then:
After the dehydrated samples were resuspended fully, an equivalent amount of PBS was added, and the integrity of the erythrocytes were assessed microscopically.

For the next test, the system named is red cells. As to conditions: red cells dried in proline plus sugar 10% (w/v), stored at room temperature for 3 months.
For the next test, the system named is blood cells. The experiment in a line: Vacuum-drying of blood cells in trehalose without organic osmolyte, then rehydration. Type of test: cell-based. As to conditions: result in words; vacuum-drying in the absence of an organic osmolyte.
In another test the test system is platelets. In words: Freeze-drying of platelets from Platelet Rich Plasma and recovery of whole platelets on rehydration (Example 5). To be noted: result in words. Type of test: cell-based. The method, then:
Blood was collected into the anti-coagulant, acid-citrate-dextrose, and the mixture then centrifuged at approximately 1100 x g for three minutes to harvest Platelet Rich Plasma.
Aliquots of the Platelet Rich Plasma were then incubated in the presence of varying concentrations of proline, carnitine and trehalose on their own, and proline and carnitine in combination with trehalose, as well as a test sample in 7.5% NaCl. All samples were incubated for 37°C for 2 hours on a slowly moving rotary mixer, before freezing and drying.
The dehydrated samples were rehydrated with either 1 volume of water, or 1 volume of water containing 2% carnitine. […] Results obtained when rehydrating with water in the presence of 2% carnitine were generally about 25% better than those achieved with water alone.

The structures appear in SMILES notation.

Description for red cells: Fresh blood was withdrawn by venepuncture from healthy volunteers into the anti-coagulant EDTA (final concentration 5mM). The blood was centifuged and then washed 3 to 4 times in a potassium free buffered salt solution which contains the following ingredients: Table 5
The cells were then resuspended finally at 50% and incubated for 60 minutes at 4°C, and aliquots were then dried at ambient temperature (evaporation cooled the samples) under a vacuum of less than 5 x 10^-2 mbar (50 Pa) for approximately 16 hours.
The red cells were dried in aliquots of 250µl and the rehydration was inititated by the addition of 250µl of solution 1 to the dry aliquots. The cells were allowed to rehydrate slowly, and when in solution, 500µl of solution 2 was added. At this stage the cells were viewed under the microscope and the number of apparently intact cells was counted. A further 1 ml of solution 2 was then added and the cells were then centrifuged at 5,220 x g for 5 minutes. The supernatant was removed and the cells were resuspended in solution 2. For typing the red cell antigenic status, an equal volume of the red cells in solution 2 was added to an equal volume of an antibody mixed 1 : 1 with solution 1.
The concentration of each sugar used was 10% (w/v). […]

For the compound `C[N+](C)(C)CC(=O)O` [Betaine, betaine], the “% Intact Cells” value is listed as 0% with erythrocytes [1] (Final Concentration 5), 35% in the test on erythrocytes [1] (Final Concentration 10), less than 5% in the test on erythrocytes [1] (Final Concentration 15) and 0% in the test on erythrocytes [1] (Final Concentration 20).
Consider `C[N+](C)(C)CC(O)CC(=O)[O-]` (stereo not drawn) [Carnitine, carnitine], for which the “% Intact Cells” value in the test on erythrocytes [2] is listed as 70%; in the test with erythrocytes [3], 87%; in the test with erythrocytes [1] (Final Concentration 5) it was 0%; in the test on erythrocytes [1] (Final Concentration 10) it was less than 1%; in the test with erythrocytes [1] (Final Concentration 15), 75%; in the test with erythrocytes [1] (Final Concentration 20), 62%. For the same compound, in the test on erythrocytes [1], the “freeze drying of erythrocytes” value was “particularly successful”.
`O=C(O)[C@@H]1CCCN1` [Proline, proline]: the “% Intact Cells” value was 78% with erythrocytes [2]; 79% with erythrocytes [3]; 0% in the test with erythrocytes [1] (Final Concentration 5); 62% in the test on erythrocytes [1] (Final Concentration 10); 81% with erythrocytes [1] (Final Concentration 15); less than 1% in the test with erythrocytes [1] (Final Concentration 20). Also, the “% apparently intact cells” value in the test on red cells was 67%. In addition, the “freeze drying of erythrocytes” value in the test with erythrocytes [1] is on record as “particularly successful”.
`OC[C@H]1O[C@H](O[C@H]2O[C@H](CO)[C@@H](O)[C@H](O)[C@H]2O)[C@H](O)[C@@H](O)[C@@H]1O` [trehalose]: in the test with blood cells, the cells on rehydration result is “only a very small percentage of cells”. Further, the “platelets recovered on reconstitution” value in the test on platelets is “almost exclusively 'ghost' platelets”.
